Reference: patent US7569569B2, “Pyrrolo[2,3-d]pyrimidine compounds” (Pfizer Inc., priority 1998, dated 2009)

Row | SMILES | melting point
1 | c1nc(N2CCCCCC2)c2cc[nH]c2n1 [Example 27, 4-Azepan-1-yl-7H-pyrrolo[2,3-d]pyrimidine] | 210 °C
2 | c1nc(N2CCCCCCC2)c2cc[nH]c2n1 [Example 17, 4-Azocan-1-yl-7H-pyrrolo[2,3-d]pyrimidine] | 225 to 226 °C
3 | Clc1c[nH]c2ncnc(N3CCCC4CCCCC43)c12 (stereo not drawn) [Example 39, 1-(5-Chloro-7H-pyrrolo[2,3-d]pyrimidin-4-yl)-decahydro-quinoline] | 190 to 192 °C
4 | Cc1cc2c(N(C)C3CCCCC3)ncnc2[nH]1 [Example 59, Cyclohexyl-methyl-(6-methyl-7H-pyrrolo[2,3-d]pyrimidin-4-yl)-amine] | 221 °C (dec.)
5 | CCCC1CCCCN1c1ncnc2[nH]ccc12 (stereo not drawn) [Example 24, 4-(2-Propyl-piperidin-1-yl)-7H-pyrrolo[2,3-d]pyrimidine] | 106 to 107 °C
6 | Clc1c[nH]c2ncnc(N3CCCCC3)c12 [Example 61, 5-Chloro-4-piperidin-1-yl-7H-pyrrolo[2,3-d]pyrimidine] | 170 to 172 °C

Second part, the molecule after the results:

Row | melting point | SMILES
7 | 209 to 211 °C | N#Cc1c[nH]c2ncnc(N3CCCCC3)c12 [Example 78, 4-Piperidin-1-yl-7H-pyrrolo[2,3-d]pyrimidine-5-carbonitrile]
8 | 193 °C | Clc1c[nH]c2ncnc(N3CCC4CCCCC43)c12 (stereo not drawn) [Example 62, 5-Chloro-4-(octahydro-indol-1-yl)-7H-pyrrolo[2,3-d]pyrimidine]
9 | 179 to 181 °C | C#Cc1c[nH]c2ncnc(N3CCCCC3)c12 [Example 79, 5-Ethynyl-4-piperidin-1-yl-7H-pyrrolo[2,3-d]pyrimidine]
